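Test compounds were applied to cells in 96-well plates for 48 hours at 5 doses. TGI: total growth inhibition.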
What was measured:
Assay in all cases: inhibition of tumour cell growth, NCI panel, 48 h
[1] = test system: 786-0 renal
[2] = test system: A498 renal
[3] = test system: A549 NSCLC
[4] = test system: ACHN renal
[5] = test system: BT-549 breast
[6] = test system: CAKI-1 renal
[7] = test system: CCRF-CEM leukemia
[8] = test system: COLO 205 colon
[9] = test system: DU-145 prostate
[10] = test system: EKVX NSCLC
[11] = test system: HCC-2998 colon
[12] = test system: HCT-116 colon
[13] = test system: HCT-15 colon
[14] = test system: HL-60(TB) leukemia
[15] = test system: HOP-62 NSCLC
[16] = test system: HOP-92 NSCLC
[17] = test system: HT29 colon
[18] = test system: IGROV1 ovarian
[19] = test system: K-562 leukemia
[20] = test system: KM12 colon
[21] = test system: M14 melanoma
[22] = test system: MALME-3M melanoma
[23] = test system: MCF7 breast
[24] = test system: MDA-MB-231 breast
[25] = test system: MDA-MB-435
[26] = test system: MDA-N
[27] = test system: MOLT-4 leukemia
[28] = test system: NCI-H23 lung
[29] = test system: NCI-H460 lung
[30] = test system: NCI-H522 lung
[31] = test system: NCI/ADR-RES ovarian
[32] = test system: OVCAR-3 ovarian
[33] = test system: OVCAR-5 ovarian
[34] = test system: OVCAR-8 ovarian
[35] = test system: PC-3 prostate
[36] = test system: RPMI-8226 leukemia
[37] = test system: RXF 393 renal
[38] = test system: SF-268 CNS
[39] = test system: SF-295 CNS
[40] = test system: SF-539 CNS
[41] = test system: SK-MEL-2 melanoma
[42] = test system: SK-MEL-28 melanoma
[43] = test system: SK-MEL-5 melanoma
[44] = test system: SN12C renal
[45] = test system: SNB-19 CNS
[46] = test system: SNB-75 CNS
[47] = test system: SR leukemia
[48] = test system: SW-620 colon
[49] = test system: T-47D breast
[50] = test system: U251 CNS
[51] = test system: UACC-257 melanoma
[52] = test system: UACC-62 melanoma
[53] = test system: UO-31 renal
[54] = test system: LOX IMVI melanoma
[55] = test system: NCI-H226 lung
[56] = test system: OVCAR-4 ovarian
[57] = test system: SK-OV-3 ovarian
[58] = test system: TK-10 renal
[59] = test system: HS 578T breast

SMILES: COc1c2cc(C(C)(C)C)cc1Cc1cccc(c1OCc1cccc([N+](=O)[O-])c1)Cc1cc(C(C)(C)C)cc(c1OC)Cc1cccc(c1OCc1cccc([N+](=O)[O-])c1)Cc1cc(C(C)(C)C)cc(c1OC)Cc1cccc(c1OCc1cccc([N+](=O)[O-])c1)C2
- TGI [1]: > 50 µM
- TGI [2]: > 50 µM
- TGI [3]: > 50 µM
- TGI [4]: > 50 µM
- TGI [5]: > 50 µM
- TGI [6]: > 50 µM
- TGI [7]: > 5 µM
- TGI [8]: > 50 µM
- TGI [9]: > 50 µM
- TGI [10]: > 50 µM
- TGI [11]: > 50 µM
- TGI [12]: > 50 µM
- TGI [13]: > 50 µM
- TGI [14]: > 50 µM
- TGI [15]: > 50 µM
- TGI [16]: > 50 µM
- TGI [17]: > 50 µM
- TGI [18]: > 50 µM
- TGI [19]: > 50 µM
- TGI [20]: > 50 µM
- TGI [21]: > 50 µM
- TGI [22]: > 50 µM
- TGI [23]: > 50 µM
- TGI [24]: > 50 µM
- TGI [25]: > 50 µM
- TGI [26]: > 50 µM
- TGI [27]: > 50 µM
- TGI [28]: > 50 µM
- TGI [29]: > 50 µM
- TGI [30]: > 50 µM
- TGI [31]: > 50 µM
- TGI [32]: > 50 µM
- TGI [33]: > 50 µM
- TGI [34]: > 50 µM
- TGI [35]: > 50 µM
- TGI [36]: > 50 µM
- TGI [37]: > 50 µM
- TGI [38]: > 50 µM
- TGI [39]: > 50 µM
- TGI [40]: > 50 µM
- TGI [41]: > 50 µM
- TGI [42]: > 50 µM
- TGI [43]: > 50 µM
- TGI [44]: > 50 µM
- TGI [45]: > 50 µM
- TGI [46]: > 50 µM
- TGI [47]: > 50 µM
- TGI [48]: > 50 µM
- TGI [49]: > 50 µM
- TGI [50]: > 50 µM
- TGI [51]: > 50 µM
- TGI [52]: > 50 µM
- TGI [53]: > 50 µM

SMILES: CC(=O)C1(Cc2cccc3ccccc23)S(=O)(=O)OCCOS1(=O)=O
- TGI [1]: 44 µM
- TGI [2]: 35.7 µM
- TGI [4]: 38 µM
- TGI [5]: 30.6 µM
- TGI [6]: 30.1 µM
- TGI [7]: > 100 µM
- TGI [8]: 30.8 µM
- TGI [9]: 42.2 µM
- TGI [10]: 32.6 µM
- TGI [11]: 31.6 µM
- TGI [12]: 41 µM
- TGI [13]: 41.6 µM
- TGI [14]: 41.4 µM
- TGI [15]: 44.8 µM
- TGI [16]: 48.4 µM
- TGI [17]: 37.4 µM
- TGI [18]: 15.1 µM
- TGI [19]: > 100 µM
- TGI [20]: 28.8 µM
- TGI [54]: 25.7 µM
- TGI [21]: 56.7 µM
- TGI [22]: 33 µM
- TGI [23]: 39.7 µM
- TGI [24]: 29.6 µM
- TGI [25]: 27.8 µM
- TGI [26]: 24.6 µM
- TGI [27]: > 100 µM
- TGI [55]: 35.3 µM
- TGI [28]: 60.4 µM
- TGI [29]: 34 µM
- TGI [30]: 47.7 µM
- TGI [31]: 61.2 µM
- TGI [32]: 36.4 µM
- TGI [56]: 75.9 µM
- TGI [33]: 32.5 µM
- TGI [34]: 55.3 µM
- TGI [35]: 29.3 µM
- TGI [36]: 47.2 µM
- TGI [37]: 26.7 µM
- TGI [38]: 50.2 µM
- TGI [39]: 20.5 µM
- TGI [40]: 37.8 µM
- TGI [42]: 41.2 µM
- TGI [43]: 24.6 µM
- TGI [57]: 8.9 µM
- TGI [44]: 25 µM
- TGI [45]: 49.2 µM
- TGI [46]: 65.4 µM
- TGI [47]: 44 µM
- TGI [48]: 39.2 µM
- TGI [49]: 43.3 µM
- TGI [58]: 39.6 µM
- TGI [50]: 31.1 µM
- TGI [51]: 16.6 µM
- TGI [52]: 31.9 µM
- TGI [53]: 29.3 µM

SMILES: CCCCCC(C/C=N/N(C)C)C(O)(C(F)(F)F)C(F)(F)F (configuration not stated)
- TGI [1]: > 100 µM
- TGI [2]: 56 µM
- TGI [3]: > 100 µM
- TGI [4]: 52.7 µM
- TGI [6]: > 100 µM
- TGI [7]: 62.7 µM
- TGI [8]: 30.5 µM
- TGI [9]: > 100 µM
- TGI [10]: > 100 µM
- TGI [11]: > 100 µM
- TGI [12]: > 100 µM
- TGI [13]: > 100 µM
- TGI [14]: 31.6 µM
- TGI [15]: > 100 µM
- TGI [16]: 78.2 µM
- TGI [59]: 91.8 µM
- TGI [17]: > 100 µM
- TGI [18]: 74.5 µM
- TGI [19]: > 100 µM
- TGI [20]: 81.6 µM
- TGI [54]: > 100 µM
- TGI [21]: > 100 µM
- TGI [22]: 67.1 µM
- TGI [24]: 70.6 µM
- TGI [25]: > 100 µM
- TGI [26]: > 100 µM
- TGI [27]: > 100 µM
- TGI [55]: > 100 µM
- TGI [28]: > 100 µM
- TGI [29]: > 100 µM
- TGI [30]: > 100 µM
- TGI [31]: > 100 µM
- TGI [32]: 66.1 µM
- TGI [56]: > 100 µM
- TGI [33]: > 100 µM
- TGI [34]: > 100 µM
- TGI [35]: > 100 µM
- TGI [36]: 60.4 µM
- TGI [37]: 76.3 µM
- TGI [38]: > 100 µM
- TGI [39]: > 100 µM
- TGI [40]: 82.7 µM
- TGI [41]: > 100 µM
- TGI [42]: > 100 µM
- TGI [43]: 30.7 µM
- TGI [57]: > 100 µM
- TGI [44]: > 100 µM
- TGI [45]: > 100 µM
- TGI [46]: 97.4 µM
- TGI [47]: > 100 µM
- TGI [48]: > 100 µM
- TGI [49]: > 100 µM
- TGI [58]: > 100 µM
- TGI [50]: > 100 µM
- TGI [52]: > 100 µM
- TGI [53]: > 100 µM

SMILES: OC1c2ccccc2CC12Cc1ccccc1C2 (configuration not stated)
- TGI [1]: > 100 µM
- TGI [2]: > 100 µM
- TGI [3]: > 100 µM
- TGI [4]: > 100 µM
- TGI [6]: > 100 µM
- TGI [7]: > 100 µM
- TGI [8]: > 100 µM
- TGI [9]: > 100 µM
- TGI [10]: > 100 µM
- TGI [11]: > 100 µM
- TGI [12]: > 100 µM
- TGI [13]: > 100 µM
- TGI [14]: > 100 µM
- TGI [15]: > 100 µM
- TGI [16]: > 100 µM
- TGI [59]: > 100 µM
- TGI [17]: > 100 µM
- TGI [18]: > 100 µM
- TGI [19]: > 100 µM
- TGI [20]: > 100 µM
- TGI [54]: > 100 µM
- TGI [21]: > 100 µM
- TGI [22]: > 100 µM
- TGI [23]: > 100 µM
- TGI [24]: > 100 µM
- TGI [25]: > 100 µM
- TGI [26]: > 100 µM
- TGI [27]: > 100 µM
- TGI [55]: 25.1 µM
- TGI [28]: > 100 µM
- TGI [29]: > 100 µM
- TGI [30]: > 100 µM
- TGI [31]: > 100 µM
- TGI [32]: > 100 µM
- TGI [56]: > 100 µM
- TGI [33]: > 100 µM
- TGI [34]: > 100 µM
- TGI [35]: > 100 µM
- TGI [36]: > 100 µM
- TGI [37]: > 100 µM
- TGI [38]: > 100 µM
- TGI [39]: > 100 µM
- TGI [40]: > 100 µM
- TGI [41]: > 100 µM
- TGI [42]: > 100 µM
- TGI [43]: 49.6 µM
- TGI [57]: > 100 µM
- TGI [44]: > 100 µM
- TGI [45]: > 100 µM
- TGI [46]: > 100 µM
- TGI [47]: > 100 µM
- TGI [48]: > 100 µM
- TGI [49]: > 100 µM
- TGI [58]: > 100 µM
- TGI [50]: > 100 µM
- TGI [51]: > 100 µM
- TGI [53]: > 100 µM
